According to PubChem BioAssay (NCI):
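48-hour exposure; five concentrations; linearly interpolated endpoints. GI50 = concentration required for 50% inhibition of growth. At the TGI there is no net growth.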

How the values were obtained:
Experiment in all cases: inhibition of tumour cell growth, NCI panel, 48 h
ACHN renal = system: ACHN renal
MALME-3M melanoma = system: MALME-3M melanoma
NCI-H23 lung = system: NCI-H23 lung
RPMI-8226 leukemia = system: RPMI-8226 leukemia
OVCAR-5 ovarian = system: OVCAR-5 ovarian
HCT-116 colon = system: HCT-116 colon
HOP-62 NSCLC = system: HOP-62 NSCLC
SF-295 CNS = system: SF-295 CNS
NCI-H522 lung = system: NCI-H522 lung
NCI/ADR-RES ovarian = system: NCI/ADR-RES ovarian

Row | SMILES | TGI (ACHN renal) | TGI (MALME-3M melanoma) | TGI (NCI-H23 lung) | TGI (RPMI-8226 leukemia) | TGI (OVCAR-5 ovarian) | TGI (HCT-116 colon) | TGI (HOP-62 NSCLC) | TGI (SF-295 CNS) | TGI (NCI-H522 lung) | TGI (NCI/ADR-RES ovarian) | GI50 (ACHN renal) | GI50 (MALME-3M melanoma) | GI50 (NCI-H23 lung) | GI50 (RPMI-8226 leukemia) | GI50 (OVCAR-5 ovarian) | GI50 (NCI/ADR-RES ovarian) | GI50 (HOP-62 NSCLC) | GI50 (SF-295 CNS) | GI50 (NCI-H522 lung) | GI50 (HCT-116 colon)
1 | O=C(C#Cc1c[nH]c(=O)[nH]c1=O)c1ccccc1 | 29.6 µM | 15.2 µM | 27.6 µM | 30.1 µM | 33.1 µM | 22 µM | 36.1 µM | > 100 µM | – | – | – | – | – | – | – | – | – | – | – | –
2 | Cc1ccc(C(=O)/C=C/c2ccccc2Cl)cc1 | 29.4 µM | 53.6 µM | 40.1 µM | 44.4 µM | 41.9 µM | 25.6 µM | > 100 µM | 39.8 µM | 26.9 µM | – | – | – | – | – | – | – | – | – | – | –
3 | CC1CC(=O)C(C(O)CC2CC(=O)N(c3ccccc3)C(=O)C2)C(C)C1 (configuration not stated) | > 100 µM | > 100 µM | > 100 µM | > 100 µM | > 100 µM | > 100 µM | > 100 µM | > 100 µM | > 100 µM | – | – | – | – | – | – | – | – | – | – | –
4 | CCCCCN(CCCCC)C(=O)[C@@H](CCC(=O)OCc1ccccc1)NC(=O)c1cc2ccccc2[nH]1 | > 100 µM | > 100 µM | > 100 µM | – | > 100 µM | > 100 µM | > 100 µM | > 100 µM | > 100 µM | – | – | – | – | – | – | – | – | – | – | –
5 | CSC(=S)NN=C1CCCCC1 | 56 µM | 44.8 µM | > 100 µM | 0.647 µM | – | > 100 µM | > 100 µM | > 100 µM | 88.7 µM | 60.6 µM | – | – | – | – | – | – | – | – | – | –
6 | Cc1cccc(NC(=O)CC2C(=O)Nc3ccccc3S2(=O)=O)c1C (configuration not stated) | 70.3 µM | 45.1 µM | 33.7 µM | – | > 100 µM | 33.1 µM | 52.8 µM | > 100 µM | 33.4 µM | – | – | – | – | – | – | – | – | – | – | –
7 | C=C(C)C1CC[C@]2(C(=O)O)CCC3(C)[C@H](CCC4[C@@]5(C)CC[C@H](OC6OC(CO)C(O)C6OC6OC(C)C(O)C(O)C6O)[C@@](C)(CO)C5CC[C@]43C)C12 (some centres not stated) | > 100 µM | – | > 100 µM | – | > 100 µM | > 100 µM | > 100 µM | > 100 µM | > 100 µM | – | – | – | – | – | – | – | – | – | – | –
8 | COc1ccc(-c2c(N)[n+]([O-])c3cc(C)c(C)cc3[n+]2[O-])cc1OC | > 100 µM | > 100 µM | > 100 µM | > 100 µM | > 100 µM | – | > 100 µM | > 100 µM | 37.8 µM | – | – | – | – | – | – | – | – | – | – | –
9 | CSc1s[s+]c(SC)c1[O-] | > 100 µM | 40.6 µM | 50.4 µM | – | > 100 µM | 36.8 µM | > 100 µM | > 100 µM | 32.2 µM | – | – | – | – | – | – | – | – | – | – | –
10 | C=C(CO)CC(O)c1ccccc1 (configuration not stated) | > 100 µM | – | > 100 µM | > 100 µM | > 100 µM | > 100 µM | > 100 µM | > 100 µM | > 100 µM | – | – | – | – | – | – | – | – | – | – | –
11 | C/C=C/C=C/[C@H]1Cc2cc(O)cc(O)c2O1 | > 100 µM | > 100 µM | > 100 µM | – | > 100 µM | > 100 µM | > 100 µM | > 100 µM | > 100 µM | – | – | – | – | – | – | – | – | – | – | –
12 | CC1=CCC2(C#N)CCC1C2=O (configuration not stated) | > 100 µM | > 100 µM | > 100 µM | > 100 µM | > 100 µM | > 100 µM | > 100 µM | > 100 µM | > 100 µM | – | – | – | – | – | – | – | – | – | – | –
13 | CCOC(=O)c1cc(C(=O)c2cc(OC)cc(OC)c2)n2ncccc12 | > 100 µM | > 100 µM | > 100 µM | > 100 µM | > 100 µM | – | > 100 µM | > 100 µM | – | 61.1 µM | 12.2 µM | > 100 µM | 4.9 µM | 1.82 µM | 43.5 µM | 0.463 µM | 10.2 µM | 2.1 µM | – | –
14 | COC(=O)C1CCc2c(OC)ccc(OC)c2C1=O (configuration not stated) | > 100 µM | > 100 µM | > 100 µM | > 100 µM | > 100 µM | > 100 µM | > 100 µM | > 100 µM | > 100 µM | – | – | – | – | – | – | – | – | – | – | –
15 | O=C(NCCNCCO)c1ccc2oc3cc4ccccc4c(=O)n3c2c1 | – | 24.1 µM | 23.4 µM | 35.6 µM | – | 19.8 µM | 25.5 µM | > 50 µM | 14.2 µM | > 50 µM | – | 12.2 µM | 9.97 µM | 12.5 µM | – | > 50 µM | 9.6 µM | 14.8 µM | 5.62 µM | 8.42 µM
16 | Clc1ccc2c(NCCCN3CCN(c4nc(-n5ccnc5)nc5ccccc45)CC3)ccnc2c1 | > 56.5 µM | 3.56 µM | > 100 µM | 5.19 µM | > 100 µM | – | > 100 µM | 3.52 µM | > 22.3 µM | – | > 23.4 µM | 1.91 µM | > 27.5 µM | 2.21 µM | > 100 µM | – | 44.8 µM | 1.88 µM | – | –
17 | COCCN1C2=CCCCC2=Nc2c(N)nc(N)nc21 | > 100 µM | > 100 µM | > 100 µM | > 100 µM | > 100 µM | > 100 µM | > 100 µM | > 100 µM | > 100 µM | – | – | – | – | – | – | – | – | – | – | –
18 | CN/N=C(\C)CC(=O)Nc1cccc(Cl)c1C | > 100 µM | > 100 µM | > 100 µM | > 100 µM | > 100 µM | > 100 µM | > 100 µM | > 100 µM | > 100 µM | – | – | – | – | – | – | – | – | – | – | –
19 | O=C1C=C(Br)C(=O)C(Br)=C1 | > 100 µM | > 100 µM | > 100 µM | > 82.2 µM | > 100 µM | > 100 µM | > 100 µM | > 100 µM | > 100 µM | – | – | – | – | – | – | – | – | – | – | –
20 | NC1=C(c2nc(-c3cc4ccccc4oc3=O)cs2)C(c2ccco2)c2c(c3ccccc3oc2=O)O1 (configuration not stated) | > 150 µg/mL | > 150 µg/mL | > 150 µg/mL | – | > 150 µg/mL | > 150 µg/mL | 81.1 µg/mL | > 150 µg/mL | > 150 µg/mL | > 150 µg/mL | 36.3 µg/mL | 120 µg/mL | > 150 µg/mL | – | > 150 µg/mL | > 150 µg/mL | 22.4 µg/mL | 130 µg/mL | > 150 µg/mL | > 150 µg/mL
21 | O=C(Nc1cc(C(F)(F)F)ccc1Cl)C(=O)C(C(=O)c1ccc2ccccc2c1)C1OC(=O)c2ccccc21 (configuration not stated) | > 86.7 µM | 27.4 µM | 17.8 µM | > 54.5 µM | 24.5 µM | 30.2 µM | 16.1 µM | 27.6 µM | 20 µM | – | – | – | – | – | – | – | – | – | – | –
22 | CC(C)OCN1COCN=C1NC#N | > 100 µM | > 100 µM | > 100 µM | – | > 100 µM | > 100 µM | > 100 µM | > 100 µM | > 100 µM | – | – | – | – | – | – | – | – | – | – | –
